Data: patent US7390790B2, “Ring-substituted diphenylazetidinones, process for their preparation, medicaments comprising these compounds, and their use” (Sanofi-Aventis Deutschland GmbH, priority 2002, dated 2008)

System: cholesterol absorption
Experiment: Cholesterol absorption test: uptake of 14C-cholesterol by the liver
Type: in vivo, mouse
Conditions: dose at which the uptake of 14C-cholesterol by the liver was halved (50%), based on a control group; peroral test substance immediately prior to 14C-cholesterol test meal; interpolated from dose-effect curve
Excerpt: Effect of the compounds of the invention on cholesterol absorption and 3H-taurocholic acid excretion using fecal excrement of mice, rats or hamsters
NMRI mice, Wistar rats, or Golden Syrian hamsters (in groups of n=4-6) were kept in metabolic cages, where they were fed with a standard diet (Altromin, Lage (Lippe)). The afternoon prior to the administration of the radioactive tracers (14C-cholesterol), the feed was removed and the animals were adapted to grates.
Additionally, the animals were labeled s.c. with 3H-TCA (taurocholic acid) (for example 1 μCi/mouse up to 5 μCi/rat) 24 hours prior to the peroral administration of the test meal (14C-cholesterol in Intralipid® 20, Pharmacia-Upjohn).
Cholesterol absorption test: 0.25 ml/mouse Intralipid® 20 (Pharmacia-Upjohn) ((spiked with 0.25 μCi of 14C-cholesterol in 0.1 mg of cholesterol) was administered perorally by gavage.
Test substances were prepared separately in 0.5% methylcellulose (Sigma)/5% Solutol (BASF, Ludwigshafen) or a suitable vehicle.
The administration volume of the test substance was 0.5 ml/mouse. The test substance was administered immediately prior to the test meal (Intralipid labeled with 14C-cholesterol) (cholesterol absorption test).
The feces were collected over a period of 24 h. Fecal elimination of 14C-cholesterol and 3H-taurocholic acid (TCA) was determined after 24 hours.
The livers were removed and homogenized, and aliquots were incinerated in an oximate (Model 307, Packard) to determine the amount of 14C-cholesterol that had been taken up/absorbed.
The amount of ^14C-cholesterol taken up by the liver was based on the administered dose. The ED50 values were interpolated from a dose-effect curve as the dose at which the uptake of 14C-cholesterol by the liver was halved (50%), based on a control group.

Row | Structure (SMILES) | ED50 (liver) [mg/mouse]
1 | COc1ccc(C2C(CCC(O)c3ccc(F)cc3)C(=O)N2c2ccc(CNC(=O)c3ccc(Oc4ccc(C(=O)NCC(O)C(O)C(O)C(O)CO)cc4)cc3)cc2)cc1 (stereo not drawn) [Example I, 2,3,4,5,6-Pentahydroxyhexylamide of 4-(4-{4-[3-[3-(4-fluorophenyl)-3-hydroxypropyl]-2-(4-methoxyphenyl)-4-oxoazetidin-1-yl]benzylcarbamoyl}phenoxy)benzoic acid] | <0.1
2 | O=C(NCc1ccc(N2C(=O)C(CCC(O)c3ccccc3)C2c2ccccc2)cc1)c1ccc(Oc2ccc(C(=O)NCC(O)C(O)C(O)C(O)CO)cc2)cc1 (stereo not drawn) [Example II, 2,3,4,5,6-Pentahydroxyhexylamide of 4-(4-{4-[3-(3-hydroxy-3-phenylpropyl)-2-oxo-4-phenylazetidin-1-yl]benzylcarbamoyl}phenoxy)benzoic acid] | <1.0
3 | O=C1C(CCC(O)c2ccc(F)cc2)C(c2ccc(OCc3ccc(C[N+]45CCN(CC4)CC5)cc3)cc2)N1c1ccc(F)cc1.[Br-] (stereo not drawn) [Example IV, 1-[4-(4-{1-(4-Fluorophenyl)-3-[3-(4-fluorophenyl)-3-hydroxypropyl]-4-oxoazetidin-2-yl}phenoxymethyl)benzyl]-4-aza-1-azoniabicyclo[2.2.2]octane bromide] | <0.1
4 | O=C1C(CCC(O)c2ccc(F)cc2)C(c2ccc(OCc3ccc(CNCC(O)C(O)C(O)C(O)CO)cc3)cc2)N1c1ccc(F)cc1 (stereo not drawn) [Example V, 1-(4-Fluorophenyl)-3-[3-(4-fluorophenyl)-3-hydroxypropyl]-4-(4-{4-[(2,3,4,5,6-pentahydroxyhexylamine)methyl]benzyloxy}phenyl)azetidin-2-one] | <0.1
5 | O=C(Cc1ccc(C[N+]23CCN(CC2)CC3)cc1)NCc1ccc(C2C(CCC(O)c3ccc(F)cc3)C(=O)N2c2ccc(F)cc2)cc1.O=C([O-])C(F)(F)F (stereo not drawn) [Example XV, 1-{4-[(4-{1-(4-Fluorophenyl)-3-[3-(4-fluorophenyl)-3-hydroxypropyl]-4-oxoazetidin-2-yl}-benzylcarbamoyl)-methyl]-benzyl}-4-aza-1-azoniabicyclo[2.2.2]octane trifluoroacetate] | <1.0
6 | O=C1C(CCC(O)c2ccc(F)cc2)C(c2ccc(OCc3cccc(CNCC(O)C(O)C(O)C(O)CO)c3)cc2)N1c1ccc(F)cc1 (stereo not drawn) [IX, 1-(4-Fluorophenyl)-3-[3-(4-fluorophenyl)-3-hydroxypropyl]-4-(4-{3-[(2,3,4,5,6-pentahydroxyhexylamine)methyl]benzyloxy}phenyl)azetidin-2-one] | <0.1
7 | O=C1C(CCC(O)c2ccc(F)cc2)C(c2ccc(OCc3ccccc3C[N+]34CCN(CC3)CC4)cc2)N1c1ccc(F)cc1.[Br-] (stereo not drawn) [VI, 1-[2-(4-{1-(4-Fluorophenyl)-3-[3-(4-fluorophenyl)-3-hydroxypropyl]-4-oxoazetidin-2-yl}phenoxymethyl)benzyl]-4-aza-1-azoniabicyclo[2.2.2]octane bromide] | 0.3
8 | O=C1C(CCC(O)c2ccc(F)cc2)C(c2ccc(OCc3ccccc3CNCC(O)C(O)C(O)C(O)CO)cc2)N1c1ccc(F)cc1 (stereo not drawn) [VII, 1-(4-Fluorophenyl)-3-[3-(4-fluorophenyl)-3-hydroxypropyl]-4-(4-{2-[(2,3,4,5,6-pentahydroxyhexylamine)methyl]benzyloxy}phenyl)azetidin-2-one] | <1.0
9 | O=C1C(CCC(O)c2ccc(F)cc2)C(c2ccc(OCc3cccc(C[N+]45CCN(CC4)CC5)c3)cc2)N1c1ccc(F)cc1.[Br-] (stereo not drawn) [VIII, 1-[3-(4-{1-(4-Fluorophenyl)-3-[3-(4-fluorophenyl)-3-hydroxypropyl]-4-oxoazetidin-2-yl}phenoxymethyl)benzyl]-4-aza-1-azoniabicyclo[2.2.2]octane bromide] | <1.0
